Laboratory results taken from patent publication US20160084820A1, “METHODS OF TREATING OR PREVENTING PERIODONTITIS AND DISEASES ASSOCIATED WITH PERIODONTITIS” (priority 2010, published 2016).
Read-outs that look alike come from different tables or passages of the source.

How the values were obtained:
nitric oxide production = experiment: NO2− (nitric oxide) production, Griess reaction-based assay, macrophages; format: cell-based, mouse; settings: 24 hours; for reversal of the inhibitory C5a effect on nitric oxide: SQ22536 200 μM, H89 5 μM, chelerythrin 5 μM, PKI 6-22 1 μM, KT5823 1 μM, C5a 50 nM
iNOS expression = experiment: iNOS expression, quantitative real-time PCR, macrophages; format: cell-based, mouse; settings: SB216763 10 μM; 8-Br-cAMP 100 μM; 4 hours
Experimental: Gene expression in resting or activated mouse macrophages was quantified using quantitative real-time PCR. Briefly, RNA was extracted from cell lysates using the PerfectPure RNA cell kit (5 Prime, Fisher) and quantified by spectrometry at 260 and 280 nm. The RNA was reverse-transcribed using the High-Capacity cDNA Archive kit (Applied Biosystems) and quantitative real-time PCR with cDNA was performed using the ABI 7500 Fast System, according to the manufacturer's protocol (Applied Biosystems). TaqMan probes, sense primers, and antisense primers for expression of a house-keeping gene (GAPDH) or iNOS (or the genes shown in FIG. 7) were purchased from Applied Biosystems.

[1] = system: phagocytosed P. gingivalis in mouse peritoneal macrophages; format: cell-based, P. gingivalis ATCC 33277
Experimental: The viability of phagocytosed P. gingivalis was monitored by an antibiotic protection-based intracellular survival assay, as previously described (Wang et al., 2007, J. Immunol., 179:2349-58). Briefly, mouse peritoneal macrophages were allowed to phagocytose P. gingivalis (MOI=10:1; 5×10^6 bacteria and 5×10^5 cells) for […] at 37° C. This was followed by washing to remove extracellular nonadherent bacteria and 1-hour treatment with antibiotics (300 μg/ml gentamicin and 200 μg/ml metronidazole) to eliminate residual or extracellular adherent bacteria. The macrophages were subsequently cultured overnight (for a total of 24 hours) or for 48 hours Immediately after, the macrophages were washed and lysed in sterile distilled water, and viable counts of internalized P. gingivalis were determined by plating serial dilutions of macrophage lysates on blood agar plates subjected to anaerobic culture.
The viability of phagocytosed P. gingivalis was monitored by an antibiotic protection-based intracellular survival assay, as previously described (Wang et al., 2007, J. Immunol., 179:2349-58)). Briefly, mouse peritoneal macrophages were allowed to phagocytose P. gingivalis (at a MOI=10:1; 5×10^6 bacteria and 5×10^5 macrophages) for 30 min at 37° C. This was followed by washing to remove extracellular nonadherent bacteria and 1-hour treatment with antibiotics (300 μg/ml gentamicin and 200 μg/ml metronidazole) to eliminate residual or extracellular adherent bacteria. The macrophages were subsequently cultured overnight for a total of 24 hours Immediately after, the macrophages were washed and lysed in sterile distilled water and viable counts of internalized P. gingivalis were determined by plating serial dilutions of macrophage lysates on blood agar plates subjected to anaerobic culture.

[2] = system: GSK3β Ser9-phosphorylation; experiment: GSK3β Ser9 phosphorylation ELISA in macrophages; format: cell-based, mouse; settings: PKI-6-22 1 μM; PD98059 25 μM
Experimental: PKA activity in lysates of activated cells was determined using the ProFluor™ PKA assay, according to the instructions of the manufacturer (Promega) (Hajishengallis et al., 2008, PNAS USA, 105:13532-7). Phosphorylation of GSK313 on Ser9 and total GSK3β were monitored using FACE™ GSK3β ELISA kits (Active Motif).

intracellular cAMP = experiment: cAMP enzyme immunoassay in P. gingivalis-stimulated macrophages; format: cell-based, mouse; settings: C5aRA 1 μM; thapsigargin 1 μM; EGTA 5 mM; pertussis toxin 100 ng/ml; AMD3100 1 μg/ml; C5a 50 nM; 1 hour
IL-12p70 production = experiment: IL-12p70 induction in IFN-gamma-primed macrophages, ELISA; format: cell-based, mouse; settings: for reversal of C5a inhibition of P. gingivalis- or LPS-induced IL-12p70: C5a 50 nM
Experimental: (§1) Induction of nitric oxide production was assessed by measuring the amount of NO2− (stable metabolite of nitric oxide) in stimulated culture supernatants using a Griess reaction-based assay kit (R&D Systems), as previously performed (Hajishengallis et al., 2008, PNAS USA, 105:13532-7). Levels of cAMP in activated cell extracts were measured using a cAMP enzyme immunoassay kit (Cayman Chemical) (Liang et al., 2007, J. Immunol., 178:4811-9). C5a-induced intracellular calcium mobilization was monitored in cells (4×10^6) loaded with 1 μM Indo 1-AM in the presence of 1 μM pluronic acid, as previously described (Ali et al., 1993, J. Biol. Chem., 268:24247-54). Calcium traces were recorded in a Perkin-Elmer fluorescence spectrometer (Model 650-19) with an excitation wavelength of 355 nm and an emission wavelength of 405 nm. Induction of cytokine production in activated cell culture supernatants or in the peritoneal fluid of infected mice was determined by ELISA using kits from eBioscience or Cell Sciences. C5a levels were measured by sandwich ELISA, employing a pair of capture and biotinylated anti-05a mAbs (BD Pharmingen), according to the manufacturer's protocol.
Whether C5a inhibits P. gingivalis-induced IL-12p70 in peritoneal macrophages was investigated. Since macrophages are generally poor producers of IL-12p70 in vitro unless primed with IFN-gamma, macrophages used in these experiments were primed with IFN-gamma (0.1 μg/ml). […] The host TLR response against P. gingivalis is predominantly mediated by TLR2, both in vitro and in vivo. Therefore, whether C5a-mediated inhibition of P. gingivalis-induced IL-12p70 could involve a C5aR-TLR2 crosstalk additionally was examined.

[3] = system: periodontal inflammatory responses; experiment: Oral Pg infection, gingival IL-1beta and TNF-alpha mRNA after local C5aRA microinjection; format: in vivo, mouse
Experimental: Experiments were performed to determine an effective dose of C5aRA (PMX-53) that inhibits periodontal inflammatory responses. Briefly, 0.1, 1, or 10 μg C5aRA (or a PBS control) were administered through 1-μl microinjections (using a 28.5-gauge MicroFine needle) on the mesial of the first molar and in the papillae between first and second and third molars, on both sides of the maxilla. These treatments were repeated five times at two day-intervals Immediately following each treatment, the mice were infected orally with Pg in 2% carboxymethylcellulose vehicle (or vehicle only). One week after the last infection, the gingiva were dissected and analyzed by real-time quantitative PCR for mRNA expression of IL-1beta and TNF-alpha (selected as the most typically involved in destructive periodontal inflammation).
Because the antagonist was applied before each Pg infection treatment, this approach was considered preventive. In addition, however, it was determined if C5aRA acts in a therapeutic way (i.e., applied after infection and inflammation occurs). […] The mice were euthanized three days after the last treatment.

[4] = system: P. gingivalis-induced cytokine production; settings: C5aRA i.p. 25 pg/mouse; 5 h post-infection
Experimental: as §1
10-12 week-old mice were infected i.p. with P. gingivalis (5×10^7 CFU) and sampled by peritoneal lavage to measure production of cytokines and enumerate recovered CFU (following anaerobic growth on blood agar plates) (Hajishengallis et al., 2008, PNAS USA, 105:13532-7), as detailed in the respective figure description.
First, it was essential to determine whether C5aR signaling can regulate P. gingivalis-induced IL-12p70 production in vivo. For this purpose, wild-type mice were i.p.-administered C5aRA followed by i.p. challenge with P. gingivalis. Mice deficient in C5aR or TLR2 were similarly challenged with P. gingivalis, and all mice were sampled 5 h post-infection by peritoneal lavage.

P. gingivalis [5] = experiment: I.p. challenge model: P. gingivalis CFU, NO2− and bacteremia; format: in vivo, mouse
Text: All animal procedures were approved by the Institutional Animal Care and Use Committee and performed in compliance with established federal and state policies.

P. gingivalis [6] = experiment: Subcutaneous titanium-coil chamber model; format: in vivo, mouse; settings: wild-type mice, 24 h post-infection
Experimental: Using the ‘chamber’ model, bacteria were injected into the lumen of a subcutaneously implanted titanium-coil chamber such that bacterial interactions with recruited inflammatory cells can be assessed accurately and quantitatively (Burns et al., 2006, J. Immunol., 177:8296-8300; Genco et al., 1991, Infect. Immun., 59:1255-63; and Graves et al., 2008, J. Clin. Periodontol., 35:89-105).

[7] = pretreatment 1 μM C5aRA and/or 1 mM L-NAME or D-NAME, Pg with C5a 50 nM, 24 hours
[8] = 1 pg applied twice weekly, four times, starting 2 weeks after five oral infections
[9] = 1 μg C5aRA microinjection before each of five Pg infections, one week after last infection
[10] = C5aRA 1 μM, U0126 10 μM, wortmannin 100 nM

## Nc1ncnc2c1ncn2C1CCCO1 (stereo not shown) [SQ22536]
Nitric oxide production
  reversal of the inhibitory C5a effect on nitric oxide: reversed

## O=S(=O)(NCCNC/C=C/c1ccc(Br)cc1)c1cccc2cnccc12 [H89]
Nitric oxide production
  reversal of the inhibitory C5a effect on nitric oxide: reversed

## Cn1cc(C2=C(c3ccc(Cl)cc3Cl)C(=O)NC2=O)c2ccccc21 [SB216763]
iNOS expression
  P. gingivalis-induced iNOS expression: mimicked the inhibitory C5a effect
Nitric oxide production; SB216763 10 μM, 8-Br-cAMP 100 μM
  P. gingivalis-induced nitric oxide production: mimicked the inhibitory C5a effect

## COC(=O)[C@H](N)CCCN=C(N)N[N+](=O)[O-] [D-NAME, N(G)-nitro-D-arginine methyl ester]
[1]
  effect on C5a-protected P. gingivalis intracellular viability: had no effect

## COC(=O)[C@@H](N)CCCNC(=N)N[N+](=O)[O-] [L-NAME, N(G)-nitro-L-arginine methyl ester]
[1]; [7]
  effect on C5a-protected P. gingivalis intracellular viability: mimicked C5a and overrode the C5aRA effect

## COc1cccc(-c2cc(=O)c3ccccc3o2)c1N [PD98059]
[2]
  effect on synergistic C5a + P. gingivalis Ser9-phosphorylation of GSK3β: not

## pertussis toxin
Intracellular cAMP
  effect on the synergistic C5a effect on P. gingivalis-induced cAMP: Significant reversal

## NC(N)=NCCC[C@H](NC(=O)COCC(c1ccccc1)c1ccccc1)C(=O)O [SB290157]
IL-12p70 production
  reversal of the inhibitory effect of C5a^desArg on IL-12p70: did not influence

## acetylated phenylalanine-(ornithine-proline-(D)cyclohexylalanine-tryptophan-arginine) [C5aRA]
[3]; [8]
  induction of IL-1beta mRNA in gingiva, therapeutic: significantly reversed induction
  induction of TNF-alpha mRNA in gingiva, therapeutic: significantly reversed induction
[3]; [9]
  induction of IL-1beta mRNA in gingiva, preventive: highly effective in inhibiting induction
  induction of TNF-alpha mRNA in gingiva, preventive: highly effective in inhibiting induction
[3]; IL-1beta and TNF-alpha mRNA, preventive
  efficacy of 1 μg dose compared with 10-fold higher dose: not significantly different
IL-12p70 production; C5aRA 1 μM
  KDP128-induced IL-12p70 in the absence of exogenously added C5a: had no effect
IL-12p70 production; [10]
  LPS-induced IL-12p70 without C5a: not seen
  P. gingivalis-induced IL-12p70 without exogenous C5a: significantly enhanced
  reversal of C5a inhibition of P. gingivalis- or LPS-induced IL-12p70: completely reversed
IL-12p70 production; C5a^desArg 50 nM, C5aRA 1 μM, A8^Δ71-73 1 μM, SB290157 5 μM
  reversal of the inhibitory effect of C5a^desArg on IL-12p70: full reversal
[4]
  IFN-gamma level in peritoneal fluid vs PBS-treated wild-type controls: significantly higher levels
  IL-12p70 level in peritoneal fluid vs PBS-treated wild-type controls: significantly higher levels
  IL-23 level in peritoneal fluid vs PBS-treated wild-type controls: significantly higher levels
  induction of IL-1beta production in peritoneal fluid: inhibited
  induction of IL-6 production in peritoneal fluid: inhibited
  induction of TNF-alpha production in peritoneal fluid: inhibited
[1]; [7]
  effect on C5a-protected P. gingivalis intracellular viability: counteracted the protective effect of C5a
P. gingivalis [5]; 24 hours post-infection
  bacteremia (blood culture for P. gingivalis): no bacteremia could be detected
P. gingivalis [5]; C5aRA i.p. 25 μg/mouse, 24 h post-infection
  less P. gingivalis CFU in peritoneal lavage fluid compared to PBS control: about 2 log10 units
P. gingivalis [5]; C5aRA i.p. 1 mg/Kg body weight, 24 hours post-infection
  reduction of P. gingivalis CFU in peritoneal lavage fluid vs control mice: > 95%
P. gingivalis [5]; C5aRA i.p., 24 hours postinfection
  nitric oxide production in peritoneal fluid relative to control mice: elevated nitric oxide production
Intracellular cAMP
  effect on the synergistic C5a effect on P. gingivalis-induced cAMP: totally abrogated
P. gingivalis [6]
  Pg viable counts in chamber fluid: reduced Pg viable counts

## O=C(O)CN(CCOCCOCCN(CC(=O)O)CC(=O)O)CC(=O)O [EGTA]
Intracellular cAMP
  effect on the synergistic C5a effect on P. gingivalis-induced cAMP: relatively minimal and statistically insignificant effect

## PKI 6-22: peptide inhibitor of PKA
[2]
  effect on synergistic C5a + P. gingivalis Ser9-phosphorylation of GSK3β: inhibited
Nitric oxide production
  reversal of the inhibitory C5a effect on nitric oxide: reversed

## N#CC(=C(/N)Sc1ccccc1N)/C(C#N)=C(\N)Sc1ccccc1N [U0126]
IL-12p70 production
  LPS-induced IL-12p70 without C5a: appeared to up-regulate
IL-12p70 production; [10]
  P. gingivalis-induced IL-12p70 without exogenous C5a: appeared to up-regulate
  reversal of C5a inhibition of P. gingivalis- or LPS-induced IL-12p70: abrogated

## C/C=C(/C)C(=O)O[C@H]1C(C)=C2[C@H]([C@@H]1OC(=O)CCCCCCC)[C@@](C)(OC(C)=O)C[C@H](OC(=O)CCC)[C@@]1(O)[C@H]2OC(=O)[C@@]1(C)O [thapsigargin]
Intracellular cAMP
  effect on the synergistic C5a effect on P. gingivalis-induced cAMP: abrogated

## c1cc(CN2CCCNCCNCCCNCC2)ccc1CN1CCCNCCNCCCNCC1 [AMD3100]
Intracellular cAMP
  effect on the synergistic C5a effect on P. gingivalis-induced cAMP: modestly attenuated
